Experimental data taken from patent publication US7071190B2, “Inhibitors to tubulin polymerization” (Rigel Pharmaceuticals, Inc., priority 2002, dated 2006).
Where two headings read alike, the source gives them in different places.

Experiments:
A549 cells = assay: Bromodeoxyuridine (BrdU) proliferation assay; format: cell-based, human; conditions: for IC50: BrdU ELISA 48 hours after addition of compound, tested 0.03-10 uM, cell line not given (A549 method; SW-480 and MDA-MB-231 also used), read-out: Assay Result (IC50μM); for Activity ranking: most active compounds of the invention / Activity ranking: particularly active examples of the compounds of the invention: antiproliferative activity
Description: In order to determine the antiproliferative activity of microtubule inhibitors, A549 cells were plated in 96 well plates at 2000 cells/well 24 hours prior to the addition of a compound of the invention in 80 ul growth media (F12K, 10% FBS, Pen/Strep). Prior to addition to cells, compounds were solubilized in 100% DMSO to 5 mM and serially diluted in 6 semi-log steps in 100% DMSO. The diluted compounds were added to cells by two 15.8-fold dilution steps, the first being a dilution into a 23% ethanol/H2O mixture and the second being a dilution into growth media. Finally, these dilutions were followed by a 1:1 dilution onto cells. The resulting final solvent concentration was 0.2% DMSO/0.75% ethanol. Compounds were tested at final concentrations of 10, 3, 1, 0.3, 0.1 and 0.03 uM. Forty-eight hours after the addition of compound, the effects on cellular proliferation were measured using a cell proliferation BrdU ELISA (Roche Molecular Biochemicals, Cat.#1 669 915).

[1] = tested on: MAP-rich tubulin protein from bovine brain; assay: Tubulin polymerization turbidity assay (A340 over time); format: biochemical
Description: FIG. 1. Tubulin polymerization inhibitory activity of the compounds of the invention was assayed by following the turbidity of a tubulin-containing solution over time. Polymerization of tubulin generates microtubules, the presence of which increases the absorbance of the assay solution over time. Effective inhibition manifests as a reduction of rate of absorbance increase at 340 nanometers. (a) 10 μM of compounds 19, 39, 43, 54 and 62, as well as 10 μM nocodazole as a positive control and DMSO as a negative control. (b) 10 μM of compounds 1, 88, 95, and 54, as well as 10 μM as well a positive controls 1 and 2 and DMSO as a negative control. (c) 0.4, 2.0 and 10 μM compound 54 versus 0.4, 2.0 and 10 μM nocodazole as a positive control and DMSO as a negative control.
Measurement of the tubulin polymerization can be achieved using known methodologies. For example, assays for tubulin polymerization may be performed using a kit from Cytoskeleton (Denver, Colo.) and as described by Tahir, S. K., et al, (2001) Cancer Res., 61:5480–5.
The assay measures tubulin polymerization as an increase in turbidity (A340) over time. Assays for tubulin polymerization were performed using a kit from Cytoskeleton (Denver, Colo.) and as described by Tahir, S. K., et al, (2001) Cancer Res., 61: 5480–5, incorporated herein by reference, and as described below.
To determine the ability of the compounds to inhibit microtubule polymerization in vitro, the following protocol was followed: (i) 70 μl ice-cold MAP-rich tubulin protein from bovine brain (1.5 mg/ml final concentration) was added to polymerization buffer (80 mM PIPES pH6.8, 1 mM EGTA, 1 mM MgCl2, 1 mM GTP) in a quartz microcuvette; (ii) 0.7 μl of DMSO or 100X stock of control (nocodazole) or test compound (thienopyrimidine) in DMSO were added to the cuvette; (iii) the contents were mixed by pipefting gently; (iv) the polymerization reaction was initiated by placing the cuvette in pre-warmed (37° C.) cuvette holder in Beckman spectrophotometer; (v) the absorbance was monitored at 340 nm at 30 second intervals for 20 minutes. Tubulin polymerization result in increased turbidity in the reaction solution, which is registered as an increase in absorbance at 340 nm. Inhibitors of tubulin polymerization are detected by a reduction in the rate, the initial slope, and/or extent of the turbidity change (i.e., max. absorbance at 340 nm) in plots of ΔA340 versus time.

[2] = 10 μM compound, FIG. 1 (a), (b)

Structure (SMILES)	IC50 (A549 cells; Homo sapiens, A549, 48 h)	IC50 (A549 cells)	Activity ranking: most active compounds of the invention (A549 cells)	Activity ranking: particularly active examples of the compounds of the invention (A549 cells)	Inhibition of tubulin polymerization (reduction of rate of absorbance increase at 340 nanometers) [1, 2]	Inhibition of tubulin polymerization (reduction of rate of absorbance increase at 340 nanometers) ([1]; 0.4, 2.0 and 10 μM, FIG. 1 (c))
COC(=O)Nc1nc2ccc(C(=O)c3cccs3)cc2[nH]1 [nocodazole, reference compound]					Inhibition activity is observed	Inhibition activity is observed
S=C(NNc1ncnc2cc(-c3ccccc3)sc12)NC1CC1 [Compound 19]	0.089 µM		most active	particularly active	Inhibition activity is observed	
Cc1ccc(-c2cc3ncnc(NNC(=S)Nc4ccccc4)c3s2)cc1C [Compound 51]	0.622 µM		most active	particularly active		
S=C(NNc1ncnc2cc(-c3ccccc3Cl)sc12)NC1CC1 [Compound 43]	0.438 µM		most active	particularly active	Inhibition activity is observed	
COc1cccc(NC(=S)NNc2ncnc3cc(-c4ccccc4)sc23)c1 [Compound 5]	0.49 µM		most active	particularly active		
S=C(NNc1ncnc2cc(-c3ccc(Cl)cc3)sc12)Nc1ccccc1 [Compound 34]	1.5 µM			particularly active		
COc1ccc(OC)c(NC(=S)NNc2ncnc3cc(-c4ccccc4)sc23)c1 [Compound 16]	0.998 µM		most active	particularly active		
FC(F)(F)c1ccccc1NC(=S)NNc1ncnc2cc(-c3ccccc3)sc12 [Compound 4]	0.904 µM		most active	particularly active		
Cc1ccc(-c2cc3ncnc(NNC(=S)Nc4ccccc4)c3s2)cc1 [Compound 31]	0.369 µM		most active	particularly active		
S=C(NNc1ncnc2cc(-c3ccccc3)sc12)N[C@@H]1CCC[C@H]1OCc1ccccc1 [Compound 22]	5.57 µM			particularly active		
OCCCCNC(=S)NNc1ncnc2cc(-c3ccccc3)sc12 [Compound 28]	6.31 µM			particularly active		
Cc1cccc(-c2cc3ncnc(NNC(=S)NC4CC4)c3s2)c1 [Compound 39]	0.039 µM		most active	particularly active	Inhibition activity is observed	
COc1ccc(NC(=S)NNc2ncnc3cc(-c4ccccc4)sc23)c(OC)c1 [Compound 14]		26.7 µM				
Cc1cccc(-c2cc3ncnc(NNC(=S)NC4CCCC4)c3s2)c1 [Compound 46]	0.256 µM		most active	particularly active		
Cc1cc(C)cc(-c2cc3ncnc(NNC(=S)NC4CC4)c3s2)c1 [Compound 54]	0.016 µM		most active	particularly active	Inhibition activity is observed	Inhibition activity is observed
S=C(NCc1ccccc1)NNc1ncnc2cc(-c3ccccc3)sc12 [Compound 57]	0.23 µM		most active	particularly active		
Cc1cccc(-c2cc3ncnc(NNC(=S)NCC(O)CO)c3s2)c1 (stereo not shown) [Compound 49]				particularly active		

The next lines start with results.

IC50 (A549 cells; Homo sapiens, A549, 48 h)	IC50 (A549 cells)	Structure (SMILES)	Activity ranking: most active compounds of the invention (A549 cells)	Activity ranking: particularly active examples of the compounds of the invention (A549 cells)	Inhibition of tubulin polymerization (reduction of rate of absorbance increase at 340 nanometers) [1, 2]	Inhibition of tubulin polymerization (reduction of rate of absorbance increase at 340 nanometers) ([1]; 0.4, 2.0 and 10 μM, FIG. 1 (c))
0.228 µM		S=C(NCC1CC1)NNc1ncnc2cc(-c3ccccc3)sc12 [Compound 62]	most active	particularly active	Inhibition activity is observed	
0.06 µM		COCCNC(=S)NNc1ncnc2cc(-c3cccc(C)c3)sc12 [Compound 88]	most active	particularly active	Inhibition activity is observed	
0.025 µM		Cc1cc(C)cc(-c2cc3ncnc(NNC(=S)NCC4CCCO4)c3s2)c1 (stereo not shown) [Compound 98]	most active	particularly active		
1.47 µM		COCCNC(=S)NNc1ncnc2cc(-c3ccccc3Cl)sc12 [Compound 95]		particularly active	Inhibition activity is observed	
0.202 µM		COCCNC(=S)NNc1ncnc2cc(-c3ccccc3)sc12 [Compound 73]	most active	particularly active		
0.024 µM		CC(C)NC(=S)NNc1ncnc2cc(-c3ccccc3)sc12 [Compound 72]	most active	particularly active		
0.211 µM		S=C(NCC1CCCO1)NNc1ncnc2cc(-c3ccccc3)sc12 (stereo not shown) [Compound 63]	most active	particularly active		
0.093 µM		S=C(NCc1ccco1)NNc1ncnc2cc(-c3ccccc3)sc12 [Compound 69]	most active	particularly active		
0.187 µM		COC(=O)CCNC(=S)NNc1ncnc2cc(-c3ccccc3)sc12 [Compound 76]	most active	particularly active		
0.054 µM		COCCCNC(=S)NNc1ncnc2cc(-c3ccccc3)sc12 [Compound 74]	most active	particularly active		
1.19 µM		COCCNC(=S)NNc1ncnc2cc(-c3ccc(OC)cc3)sc12 [Compound 92]		particularly active		
0.188 µM		S=C(NC[C@H]1CCCO1)NNc1ncnc2cc(-c3ccccc3)sc12 [Compound 64]	most active	particularly active		
